Key:
Format in all cases: biochemical
[1] = target: T1, JIK (Homo sapiens, UniProt Q9H2K8); assay: JIK Luciferase-Coupled Chemiluminescent Kinase assay (LCCA); conditions: 2 μM ATP, 10 μM MBP, 6 nM JIK, 2 hours; read-out: JIK inhibition IC50
T1 construct: 6 nM JIK (baculovirus expressed human KIAA 1361 kinase domain2-318); made in house
T1 sequence (Q9H2K8 2-318): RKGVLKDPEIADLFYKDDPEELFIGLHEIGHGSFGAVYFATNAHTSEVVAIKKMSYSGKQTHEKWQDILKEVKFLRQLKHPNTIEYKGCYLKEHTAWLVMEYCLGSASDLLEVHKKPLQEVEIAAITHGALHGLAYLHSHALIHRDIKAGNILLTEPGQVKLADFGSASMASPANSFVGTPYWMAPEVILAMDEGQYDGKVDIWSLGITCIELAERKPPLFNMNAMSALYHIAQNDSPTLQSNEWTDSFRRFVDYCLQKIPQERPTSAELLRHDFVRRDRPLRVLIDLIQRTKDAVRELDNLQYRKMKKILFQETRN
Procedure: (§1) Kinase activity and compound inhibition are investigated using one or more of the three assay formats described below. The ATP concentrations for each assay are selected to be close to the Michaelis-Menten constant (KM) for each individual kinase. Dose-response experiments are performed at 10 different inhibitor concentrations in a 384-well plate format. The data are fitted to four-parameter equation (2) below; where Y is the observed signal, X is the inhibitor concentration, Min is the background signal in the absence of enzyme (0% enzyme activity), Max is the signal in the absence of inhibitor (100% enzyme activity), IC50 is the inhibitor concentration at 50% enzyme inhibition and H represents the empirical Hill's slope to measure the cooperativity. Typically H is close to unity. Y=Min+(Max−Min)/(1+(X/IC50)ˆH) Equation (2) KIAA 1361 Assay: […]
(§2) JIK biochemical activity was assessed using a Luciferase-Coupled Chemiluminescent Kinase assay (LCCA) format. Kinase activity was measured as the percent ATP remaining following the kinase reaction. Remaining ATP was detected by luciferase-luciferin-coupled chemiluminescence. Specifically, the reaction was initiated by mixing test compounds, 2 μM ATP, 10 μM MBP and 6 nM JIK (baculovirus expressed human KIAA 1361 kinase domain2-318) in a 20 uL assay buffer (20 mM Tris-HCL pH7.5, 10 mM MgCl2, 0.02% Triton X-100, 100 mM DTT, 2 mM MnCl2). The mixture is incubated at ambient temperature for 2 hours after which 20 uL luciferase-luciferin mix is added and the chemiluminescent signal read using a Wallac Victor^2 reader. The luciferase-luciferin mix consists of 50 mM HEPES, pH 7.8, 8.5 ug/mL oxalic acid (pH 7.8), 5 (or 50) mM DTT, 0.4% Triton X-100, 0.25 mg/mL coenzyme A, 63 uM AMP, 28 ug/mL luciferin and 40,000 units of light/mL luciferase.

[2] = target: T2, KIAA 1361 (baculovirus expressed human KIAA 1361 kinase domain 2-322) (Homo sapiens, UniProt Q7L7X3); assay: KIAA 1361 Luciferase-Coupled Chemiluminescent Kinase assay (LCCA); conditions: 2 μM ATP, 10 μM MBP, 12 nM KIAA 1361, 2 hours; read-out: KIAA1361 inhibition IC50
T2 construct: human KIAA 1361 kinase domain 2-322; made in house
T2 sequence (Q7L7X3 2-322): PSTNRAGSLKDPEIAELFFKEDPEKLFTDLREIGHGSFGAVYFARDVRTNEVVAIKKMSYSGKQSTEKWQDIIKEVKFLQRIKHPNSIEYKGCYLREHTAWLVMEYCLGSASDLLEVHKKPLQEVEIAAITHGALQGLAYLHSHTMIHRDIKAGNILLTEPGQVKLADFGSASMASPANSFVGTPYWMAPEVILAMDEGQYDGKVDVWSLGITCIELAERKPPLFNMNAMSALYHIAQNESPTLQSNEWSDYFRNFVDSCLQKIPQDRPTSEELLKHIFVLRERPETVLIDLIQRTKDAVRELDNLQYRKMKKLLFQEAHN
Procedure: as §1
as §2, with “KIAA 1361 biochemical” for “JIK biochemical”, “and 12” for “and 6”, “nM KIAA 1361” for “nM JIK”, “kinase domain 2-322)” for “kinase domain2-318)”

[3] = target: T3, TAO (Homo sapiens, UniProt Q9UL54); assay: TAO Luciferase-Coupled Chemiluminescent Kinase assay (LCCA); conditions: 2 μM ATP, 10 μM MBP, 12 nM TAO, 2 hours; read-out: TAO inhibition IC50
T3 sequence (Q9UL54 1-1235): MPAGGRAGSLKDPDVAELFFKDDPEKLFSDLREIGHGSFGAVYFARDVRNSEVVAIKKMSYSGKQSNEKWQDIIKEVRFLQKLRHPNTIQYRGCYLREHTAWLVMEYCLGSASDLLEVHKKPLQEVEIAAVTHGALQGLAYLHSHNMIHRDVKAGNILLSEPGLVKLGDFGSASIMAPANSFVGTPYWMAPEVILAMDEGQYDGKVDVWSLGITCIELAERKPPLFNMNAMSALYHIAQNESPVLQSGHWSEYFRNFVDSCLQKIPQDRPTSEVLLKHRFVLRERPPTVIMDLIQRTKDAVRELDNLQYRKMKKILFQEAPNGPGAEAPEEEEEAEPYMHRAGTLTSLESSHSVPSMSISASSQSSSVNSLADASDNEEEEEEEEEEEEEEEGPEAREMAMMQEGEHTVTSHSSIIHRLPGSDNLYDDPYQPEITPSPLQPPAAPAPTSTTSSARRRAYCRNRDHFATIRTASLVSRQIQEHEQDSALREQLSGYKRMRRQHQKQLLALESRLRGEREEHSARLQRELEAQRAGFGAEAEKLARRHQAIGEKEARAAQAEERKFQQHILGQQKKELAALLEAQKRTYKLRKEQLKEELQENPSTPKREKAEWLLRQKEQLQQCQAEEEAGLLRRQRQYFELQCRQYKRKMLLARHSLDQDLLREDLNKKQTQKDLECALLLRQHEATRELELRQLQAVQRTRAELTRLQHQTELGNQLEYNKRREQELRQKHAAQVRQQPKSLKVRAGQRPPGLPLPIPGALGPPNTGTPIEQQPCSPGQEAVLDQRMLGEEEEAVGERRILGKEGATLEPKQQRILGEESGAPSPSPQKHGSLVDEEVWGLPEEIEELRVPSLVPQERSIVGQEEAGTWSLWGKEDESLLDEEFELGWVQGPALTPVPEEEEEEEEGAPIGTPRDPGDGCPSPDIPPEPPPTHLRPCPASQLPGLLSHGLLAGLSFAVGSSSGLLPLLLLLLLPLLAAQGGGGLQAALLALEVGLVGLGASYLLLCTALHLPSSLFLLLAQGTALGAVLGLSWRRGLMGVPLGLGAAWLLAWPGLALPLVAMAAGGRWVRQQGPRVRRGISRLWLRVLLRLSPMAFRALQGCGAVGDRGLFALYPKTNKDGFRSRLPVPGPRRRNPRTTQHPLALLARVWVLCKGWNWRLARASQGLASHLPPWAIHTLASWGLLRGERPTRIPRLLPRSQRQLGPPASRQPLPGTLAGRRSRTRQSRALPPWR
Procedure: as §1
as §2, with “TAO biochemical” for “JIK biochemical”, “and 12” for “and 6”, “nM TAO” for “nM JIK”, “kinase domain 2-322)” for “kinase domain2-318)”, “mM […],” for “mM HEPES,”, “[…]” for “0.25 mg/mL”

| Structure (SMILES) | IC50 [1] [nM] | IC50 [2] [nM] | IC50 [3] [nM] |
| --- | --- | --- | --- |
| CCCCOc1ccc(C(=O)NC(C)C(=O)NC2CCc3ccccc3C2)cc1 (stereo not drawn) [Entry 18, 4-(butyloxy)-N-[1-methyl-2-oxo-2-(1,2,3,4-tetrahydronaphthalen-2-ylamino)ethyl]benzamide] | 50 to 500 | 50 to 500 | 500 to 5000 |
| O=C(CNC(=O)c1ccc2c(c1)CCCC2)NC1CCCc2ccccc21 (stereo not drawn) [Entry 82, N-[2-oxo-2-(1,2,3,4-tetrahydronaphthalen-1-ylamino)ethyl]-5,6,7,8-tetrahydronaphthalene-2-carboxamide] | 500 to 5000 | > 5000 | > 5000 |
| O=C(CNC(=O)c1ccc(-n2ccnc2)cc1)NC1CCCc2ccccc21 (stereo not drawn) [Entry 70, 4-(1H-imidazol-1-yl)-N-[2-oxo-2-(1,2,3,4-tetrahydronaphthalen-1-ylamino)ethyl]benzamide] | 50 to 500 | 500 to 5000 | 500 to 5000 |
| O=C(CNC(=O)c1cnc2ccccc2c1)NC1CCCc2ccccc21 (stereo not drawn) [Entry 46, N-[2-oxo-2-(1,2,3,4-tetrahydronaphthalen-1-ylamino)ethyl]quinoline-3-carboxamide] | > 5000 | > 5000 | > 5000 |
| CCOCCCn1c(=S)[nH]c2cc(C(=O)NCC3COc4ccccc4O3)ccc2c1=O (stereo not drawn) [Entry 39, N-(2,3-dihydro-1,4-benzodioxin-2-ylmethyl)-3-[3-(ethyloxy)propyl]-4-oxo-2-thioxo-1,2,3,4-tetrahydroquinazoline-7-carboxamide] | 50 to 500 | 50 to 500 | 50 to 500 |
| CCc1ccc(-c2ccc(C(=O)NCC(=O)Nc3nc4ccc(OC)cc4s3)cc2)cc1 [Entry 64, 4′ethyl-N-(2-{[6-(methyloxy)-1,3-benzothiazol-2-yl]amino}-2-oxoethyl)biphenyl-4-carboxamide] | > 5000 | > 5000 | > 5000 |
| CC(C)c1ccc(NC(=O)N2CCC[C@H]2C(=O)NCc2ccc(Cl)c(Cl)c2)cc1 [Entry 24, (2S)-N˜2˜-[(3,4-dichlorophenyl)methyl]-N˜1˜-[4-(1-methylethyl)phenyl]pyrrolidine-1,2-dicarboxamide] | 50 to 500 | 50 to 500 | 500 to 5000 |
| O=C(COc1ccc(-c2nccc(-c3ccccn3)n2)cc1)NCc1ccc(Cl)c(Cl)c1 [Entry 38, N-[(3,4-dichlorophenyl)methyl]-2-{[4-(4-pyridin-2-ylpyrimidin-2-yl)phenyl]oxy]acetamide] | < 50 | < 50 | 50 to 500 |
| CCCCCCOc1ccc(C(=O)NC(C)C(=O)NC2CCc3ccccc3C2)cc1 (stereo not drawn) [Entry 36, 4-(hexyloxy)-N-[1-methyl-2-oxo-2-(1,2,3,4-tetrahydronaphthalen-2-ylamino)ethyl]benzamide] | 50 to 500 | > 5000 | > 5000 |
| CC(C)CC(NC(=O)c1ccc(-c2ccccc2)cc1)C(=O)NC1CCCc2ccccc21 (stereo not drawn) [Entry 32, N-{3-methyl-1-[(1,2,3,4-tetrahydronaphthalen-1-ylamino)carbonyl]butyl}biphenyl-4-carboxamide] | 500 to 5000 | 500 to 5000 | > 5000 |
| O=C(NC(C(=O)NC1CCCc2ccccc21)c1cccnc1)c1ccc(-n2cncn2)cc1 (stereo not drawn) [Entry 16, N-[2-oxo-1-pyridin-3-yl-2-(1,2,3,4-tetrahydronaphthalen-1-ylamino)ethyl]-4-(1H-1,2,4-triazol-1-yl)benzamide] | 50 to 500 | 50 to 500 | 50 to 500 |
| COc1ccc2nc(NC(=O)CNC(=O)CC(NC(C)=O)c3ccccc3)sc2c1 (stereo not drawn) [Entry 84, 3-(acetylamino)-N-(2-{[6-(methyloxy)-1,3-benzothiazol-2-yl]amino}-2-oxoethyl)-3-phenylpropanamide] | > 5000 | > 5000 | > 5000 |
| CCCCCc1ccc(C(=O)NCC(=O)NC2CCCc3ccccc32)cc1 (stereo not drawn) [Entry 11, N-[2-oxo-2-(1,2,3,4-tetrahydronaphthalen-1-ylamino)ethyl]-4-pentylbenzamide] | 50 to 500 | 50 to 500 | 50 to 500 |

— patent US20070208166A1, “Tao Kinase Modulators And Method Of Use” (Exelixis, Inc., priority 2003, published 2007)
